Data as given in US9828357B2, “Cyclic compounds” (Takeda Pharmaceutical Company Limited, priority 2015, dated 2017).

Molecular target: T1, TLR4 (Mus musculus, UniProt Q9QUK6)
T1 construct: endogenous in cells; host or cells: RAW264.7 (murine macrophage cell line)
T1 sequence (Q9QUK6 26-835): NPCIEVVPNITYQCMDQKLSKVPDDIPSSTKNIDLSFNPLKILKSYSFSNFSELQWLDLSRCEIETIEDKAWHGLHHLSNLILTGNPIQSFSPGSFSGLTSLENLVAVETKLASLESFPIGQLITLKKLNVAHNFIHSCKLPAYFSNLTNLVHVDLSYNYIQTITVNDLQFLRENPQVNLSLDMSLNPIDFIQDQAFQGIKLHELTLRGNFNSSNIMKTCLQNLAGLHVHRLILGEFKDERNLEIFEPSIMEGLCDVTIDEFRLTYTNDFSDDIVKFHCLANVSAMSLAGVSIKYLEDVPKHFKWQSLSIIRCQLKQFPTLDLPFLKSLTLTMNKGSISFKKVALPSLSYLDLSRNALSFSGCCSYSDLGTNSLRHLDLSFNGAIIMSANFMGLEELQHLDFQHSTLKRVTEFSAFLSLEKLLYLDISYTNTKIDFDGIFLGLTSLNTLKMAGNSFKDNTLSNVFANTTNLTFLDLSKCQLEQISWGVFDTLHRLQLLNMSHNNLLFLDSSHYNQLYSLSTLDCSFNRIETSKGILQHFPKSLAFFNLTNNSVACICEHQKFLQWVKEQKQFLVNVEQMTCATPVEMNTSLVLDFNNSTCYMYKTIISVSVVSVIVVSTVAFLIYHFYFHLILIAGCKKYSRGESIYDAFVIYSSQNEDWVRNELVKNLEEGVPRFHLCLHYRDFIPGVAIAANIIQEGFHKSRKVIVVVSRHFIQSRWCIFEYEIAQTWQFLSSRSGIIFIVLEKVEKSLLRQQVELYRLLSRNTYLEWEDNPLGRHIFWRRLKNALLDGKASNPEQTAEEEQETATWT
T1 sequence (Q9JHF9 19-160 partner): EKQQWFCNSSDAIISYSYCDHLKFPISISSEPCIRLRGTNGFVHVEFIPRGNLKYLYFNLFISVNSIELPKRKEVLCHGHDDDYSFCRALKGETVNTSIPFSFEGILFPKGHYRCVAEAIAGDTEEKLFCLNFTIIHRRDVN
Test: Inhibitory effect with respect to NO production (LPS/interferon γ-stimulated RAW264.7)
Type: cell-based, murine
Conditions: RAW264.7 cells, LPS 1.25 ng/mL and mouse interferon γ 0.2 ng/mL, nitrite ion in culture supernatant
Method: The inhibitory effect on TLR4 was determined using the inhibition rate due to the test compound with respect to NO production as a result of addition of lipopolysaccharide (LPS) using murine macrophage cell line RAW264.7. The cells were adjusted to 2×10^6 cells/mL using RPM1-1640 culture medium (phenol red free) supplemented with 10% inactivated bovine fetal serum, and were plated on 384 well plate so as to contain 6×10^4 cells/30 μL per well. Thereafter the cells were cultured at 37° C. overnight under 5% CO2/95% air. The test compound dissolved in DMSO was diluted 200 times using RPM1-1640 culture medium and adjusted so as to form a compound concentration of 500 nM. The prepared test compound 10 μL (final concentration 100 nM) was added to the cells, and LPS (Sigma) and mouse interferon γ (Wako Pure Chemicals) were added in amounts of 10 μL so as to form final concentrations of 1.25 ng/mL and 0.2 ng/mL respectively. The cells were further cultured overnight, and then the nitrite ion (stable NO metabolite) concentration in the culture supernatant was measured as an index of NO production. The nitrite ion concentration was assayed by adding 10 μL of 20 μg/mL 2,3-diamino naphthalene (DAN) dissolved in 0.2N HCl to 20 μL culture supernatant, incubating at room temperature for ten minutes, and then adding 10 μL of 0.5N NaOH, and measuring the fluorescent value at 460 nm (excitation wavelength 355 nm) using an EnVision plate reader (Perkin Elmer). The NO production inhibition rate (%) was calculated using the value without the addition of stimulating agent as control of 100% inhibition, and the value without the addition of the compound as control of 0% inhibition.

| NO production inhibitory effect at 100 nM (% inhibition) (0.1 µM) | NO production inhibitory effect at 100 nM (% inhibition) | Compound |
| --- | --- | --- |
| 110 |  | CCOC(=O)C1=CC(O)CCC1S(=O)(=O)C1CCc2cccc(Cl)c21 (racemic) [Compound 4, Ethyl 6-((7-chloro-2,3-dihydro-1H-inden-1-yl)sulfonyl)-3-hydroxycyclohex-1-ene-1-carboxylate] |
| 100 |  | CCOC(=O)C1=CC(O)CCC1S(=O)(=O)C1CCc2cccc(Cl)c21 (racemic) [Compound 5, Ethyl 6-((7-chloro-2,3-dihydro-1H-inden-1-yl)sulfonyl)-3-hydroxycyclohex-1-ene-1-carboxylate] |
| 108 |  | CCOC(=O)C1=CC2(CCC1S(=O)(=O)C1CCCc3cccc(Cl)c31)O[C@H](CO)[C@@H](CO)O2 (single isomer, unassigned) [Compound 16] |
| 86 |  | CCOC(=O)C1=CC2(CCC1S(=O)(=O)C1CCCc3cccc(Cl)c31)O[C@H](CO)[C@@H](CO)O2 (single isomer, unassigned) [Compound 17] |
|  | 104 | CCOC(=O)C1=CCOCC1S(=O)(=O)C1CCc2cccc(Cl)c21 (single isomer, unassigned) [Compound 20] |
|  | 96 | CCOC(=O)C1=CCCCC1S(=O)(=O)C1CCc2c(Cl)cccc21 (stereo not drawn) [Compound 1, Ethyl 6-((4-chloro-2,3-dihydro-1H-inden-1-yl)sulfonyl)cyclohex-1-ene-1-carboxylate] |
|  | 99 | CCOC(=O)C1=CC2(CCC1S(=O)(=O)C1CCc3c(Cl)cccc31)O[C@H](CO)[C@@H](CO)O2 (stereo partly drawn) [Compound 2, Ethyl (2R,3R)-8-((4-chloro-2,3-dihydro-1H-inden-1-yl)sulfonyl)-2,3-bis(hydroxymethyl)-1,4-dioxaspiro[4.5]dec-6-ene-7-carboxylate] |
|  | 110 | CCOC(=O)C1=CC2(CCC1S(=O)(=O)C1CCc3c(Cl)cccc31)O[C@@H](CO)[C@H](CO)O2 (stereo partly drawn) [Compound 3, Ethyl (2S,3S)-8-((4-chloro-2,3-dihydro-1H-inden-1-yl)sulfonyl)-2,3-bis(hydroxymethyl)-1,4-dioxaspiro[4.5]dec-6-ene-7-carboxylate] |
|  | 105 | CCOC(=O)C1=CC2(CC[C@H]1S(=O)(=O)[C@H]1CCc3cccc(Cl)c31)O[C@@H](CO)[C@H](CO)O2 [Compound 7, Ethyl (2S,3S,8R)-8-(((1S)-7-chloro-2,3-dihydro-1H-inden-1-yl)sulfonyl)-2,3-bis(hydroxymethyl)-1,4-dioxaspiro[4.5]dec-6-ene-7-carboxylate] |
|  | 99 | CC1(COC(=O)C2=CC3(CCC2S(=O)(=O)C2CCc4cccc(Cl)c42)O[C@@H](CO)[C@H](CO)O3)CC1 (stereo partly drawn) [Compound 8, (1-methylcyclopropyl)methyl (2S,3S)-8-((7-chloro-2,3-dihydro-1H-inden-1-yl)sulfonyl)-2,3-bis(hydroxymethyl)-1,4-dioxaspiro[4.5]dec-6-ene-7-carboxylate] |
|  | 110 | CCOC(=O)C1=CC2(CCC1S(=O)(=O)C1CCc3c(F)ccc(Cl)c31)O[C@@H](CO)[C@H](CO)O2 (stereo partly drawn) [Compound 9, Ethyl (2S, 3S)-8-((7-chloro-4-fluoro-2,3-dihydro-1H-inden-1-yl)sulfonyl)-2,3-bis(hydroxymethyl)-1,4-dioxaspiro[4.5]dec-6-ene-7-carboxylate] |
|  | 100 | CCOC(=O)C1=CC2(CCC1S(=O)(=O)C1CCc3ccc(F)c(Cl)c31)O[C@@H](CO)[C@H](CO)O2 (stereo partly drawn) [Compound 10, Ethyl (2S, 3S)-8-((7-chloro-6-fluoro-2,3-dihydro-1H-inden-1-yl)sulfonyl)-2,3-bis(hydroxymethyl)-1,3-dioxaspiro[4.5]dec-6-ene-7-carboxylate] |
|  | 110 | CCOC(=O)C1=CC2(CCC1S(=O)(=O)C1CCc3cc(F)cc(Br)c31)O[C@@H](CO)[C@H](CO)O2 (stereo partly drawn) [Compound 11, Ethyl (2S, 3S)-8-((7-bromo-5-fluoro-2,3-dihydro-1H-inden-1-yl)sulfonyl)-2,3-bis(hydroxymethyl)-1,4-dioxaspiro[4.5]dec-6-ene-7-carboxylate] |
|  | 100 | CCOC(=O)C1=CC2(CCC1S(=O)(=O)C1CCc3cccc(Br)c31)O[C@@H](CO)[C@H](CO)O2 (stereo partly drawn) [Compound 12, Ethyl (2S, 3S)-8-((7-bromo-2,3-dihydro-1H-inden-1-yl)sulfonyl)-2,3-bis(hydroxymethyl)-1,4-dioxaspiro[4.5]dec-6-ene-7-carboxylate] |
|  | 100 | CCOC(=O)C1=CC2(CCC1S(=O)(=O)C1CCc3cccc(C)c31)O[C@@H](CO)[C@H](CO)O2 (stereo partly drawn) [Compound 13, Ethyl (2S, 3S)-2,3-bis(hydroxymethyl)-8-((7-methyl-2,3-dihydro-1H-inden-1-yl)sulfonyl)-1,4-dioxaspiro[4.5]dec-6-ene-7-carboxylate] |
|  | 106 | CCOC(=O)C1=CC2(CC[C@H]1S(=O)(=O)[C@H]1CCc3cc(F)cc(Cl)c31)O[C@@H](CO)[C@H](CO)O2 [Compound 15, Ethyl (2S,3S,8R)-8-(((1S)-7-chloro-5-fluoro-2,3-dihydro-1H-inden-1-yl)sulfonyl)-2,3-bis(hydroxymethyl)-1,4-dioxaspiro[4.5]dec-6-ene-7-carboxylate] |
|  | 104 | CCOC(=O)C1=CCCC[C@H]1S(=O)(=O)[C@H]1CCc2cccc(Cl)c21 [Compound 18, Ethyl (6R)-6-(((1S)-7-chloro-2,3-dihydro-1H-inden-1-yl)sulfonyl)cyclohex-1-ene-1-carboxylate] |
|  | 107 | CCOC(=O)C1=CC2(CC[C@H]1S(=O)(=O)[C@H]1CCCc3cccc(Cl)c31)O[C@@H](CO)[C@H](CO)O2 [Compound 19, Ethyl (2S,3S,8R)-8-(((1S)-8-chloro-1,2,3,4-tetrahydronaphthalen-1-yl)sulfonyl)-2,3-bis(hydroxymethyl)-1,4-dioxaspiro[4.5]dec-6-ene-7-carboxylate] |
